Source: patent US20250282797A1, “CRYSTALLINE FORM OF FGFR4 INHIBITOR AND USE THEREOF” (CSPC ZHONGQI PHARMACEUTICAL TECHNOLOGY (SHIJIAZHUANG) CO., …, priority 2022, published 2025)
Converted amounts (≈) assume the structure as drawn. Like-named read-outs stand apart in the source and are kept apart here. Each block holds one compound with its values, some of them ahead of it.

Assays:
[1] = Competitive suspension experiments; assay type: physicochemical; settings: for XRPD result (room temperature): 25° C.
Description: Test Example 1: Competitive Suspension Experiments
Equal amounts (6 mg) of the crystalline form I sample of the compound of formula B obtained in Example 1, the crystalline form II sample of the compound of formula B obtained in Example 22, and the crystalline form III sample of the compound of formula B obtained in Example 33 were mixed. The resulting mixture was separately stirred at room temperature (25° C.) and at a high temperature (50° C.) for 24 h, 2 days, and 7 days in the following solvents, and the remaining solids were subjected to the XRPD test.

[2] = Pharmacokinetic study in rats; assay type: in vivo, SD rats; settings: rat
Text: Test Example 6: Pharmacokinetic Study of Compound of Formula B in Rats
Assay drug: the compound of formula B obtained in Preparation Example 1.
Instrument: LC-MS/MS-13 (TQ5500, Triple quad), with the operation software of Xcalibur2.0.7 (Thermo Fisher Scientific, USA); LC-10ADvp liquid chromatography system (Shimadzu, Japan); Shimadzu LC-20AD liquid chromatography pump; Shimadzu CBM-20A system controller; Shimadzu CTO-20A column oven; and SIL-20AC autosampler (Shimadzu, Japan). Chromatographic column: Agilent Zorbax SB-CN 3.5 u 100×2.1 mm; column temperature: 40° C.; mobile phase A: 0.1% aqueous formic acid solution; mobile phase B: a 0.1% solution of formic acid in acetonitrile; flow rate: 0.60 mL/min. The gradient elution was performed as follows: from 0 to 0.5 min, the mobile phase B was increased from 1% to 90%; from 0.5 to 1.2 min, 90% of the mobile phase B was maintained; starting from 1.21 min, the mobile phase B was changed back to 1%; and elution was stopped at 1.60 min.
Animals: 6 male SD rats were supplied by Shanghai Sippe-Bk Lab Animal Co., Ltd. The body weight range was 180-220 g. After purchase, the rats were bred in the laboratory of the experimental animal center for 2 days for later use. The rats were fasted 10-14 h before administration and 4 h after administration, and given ad libitum access to water during the assay. The rats were randomly divided into two groups, with 3 rats in each group. One group was intravenously injected, and the other group was intragastrically administered.
Preparation of intragastric administration solution: the compound of formula B (4.85 mg) was precisely weighed out, and a mixed aqueous solution (9.70 mL) containing 0.5% methylcellulose and 0.4% Tween-80 was added, followed by sonication at room temperature to prepare a 0.5 mg/mL suspension. Preparation of intravenous injection solution: the compound of formula B (2.79 mg) was precisely weighed out, and DMSO (21 μL), PEG200 (2.79 mL), and normal saline (4.164 mL) were added to prepare a 0.4 mg/mL solution.
Blood was collected in the intragastric administration group about 0.25 h before administration and 0.25 h, 0.5 h, 1 h, 1.5 h, 2 h, 4 h, 6 h, 8 h, 12 h, and 24 h after administration. Blood was collected in the intravenous administration group about 0.25 h before administration and 0.083 h, 0.25 h, 0.5 h, 0.75 h, 1 h, 2 h, 4 h, 8 h, 12 h, and 24 h after administration. The blood was collected from the jugular vein or other venipuncture at 0.25 mL/time point and anticoagulated with EDTA-K2 or EDTA-K3. The collected blood was placed on the ice. After the blood samples were collected, plasma was separated by centrifugation (centrifugation conditions: 6800 g/min, 6 min, 2-8° C.). The collected plasma samples were stored in a refrigerator at −80° C. for testing prior to analysis.
The compound of the formula B was accurately weighed out and formulated into different concentrations, and quantitative analysis was performed on a mass spectrometer to establish a standard curve. The concentration of the compound of formula B in the plasma described above was then measured to obtain the concentrations of the compound of formula B at different time points. All the measured data were collected and processed by relevant software, and pharmacokinetic parameters (mainly including kinetic parameters Tmax, T1/2, Cmax, AUC0-t, etc.) were calculated by adopting a statistical moment method. […]

Solubility test = assay type: physicochemical; settings: 200 rpm; for FeSSIF Solubility: FeSSIF (pH about 5.00); for solubility at 24 h: 37 °C, thermodynamic from solid
Description: Test Example 2: Solubility Test
The crystalline form I sample (5 mg) obtained in Example 1 and the crystalline form II sample (5 mg) obtained in Example 22 were added to a sample bottle, and 1 mL of SGF (simulated gastric fluid), FaSSIF (fasted state simulated intestinal fluid), FeSSIF (fed state simulated intestinal fluid), and water were separately added. The resulting suspensions were shaken at 37° C. at a rotation speed of 200 rpm for 24 h and filtered. The resulting filtrates were subjected to the concentration test, and the resulting solids were subjected to XRPD characterization.

Solid stability study = assay type: physicochemical; settings: 7 days
Description: Test Example 3: Solid Stability Study
The crystalline form I (5 mg) obtained in Example 1 and the crystalline form II (5 mg) obtained in Example 22 were weighed into sample bottles; the samples were subjected to solid-state stability studies after being placed under the conditions of 60° C. (closed) and 40° C./75% RH (open); and sampling was performed on day 7 for XRPD characterization.

[3] = Dynamic vapor sorption/desorption (DVS) analysis; assay type: physicochemical
Description: 2. Dynamic Vapor Sorption/Desorption (DVS) Analysis
Instrument: DVS Intrinsic plus (SMS, UK).
Method: a sample is placed in a tared sample basket, the weight of the sample is automatically measured, and the sample is dried at 40° C./0% RH until dm/dt is less than 0.002% and then cooled to 25° C.

Grinding stability study = assay type: physicochemical
[4] = Dichloromethane/acetonitrile (V:V = 1:2), 0.5 mL, 24 h
[5] = Dichloromethane/acetonitrile (V:V = 1:2), 0.5 mL, 7 days
[6] = Dichloromethane/ethanol (V:V = 1:4), 0.5 mL, 24 h
[7] = Dichloromethane/ethanol (V:V = 1:4), 0.5 mL, 7 days
[8] = N,N-Dimethylformamide, 0.5 mL, 24 h
[9] = N,N-Dimethylformamide, 0.5 mL, 7 days
[10] = Water/acetone (V:V = 1:1), 1 mL, 2 days
[11] = Water/acetone (V:V = 2:8), 1 mL, 2 days
[12] = Water/acetone (V:V = 5:95), 1 mL, 2 days
[13] = male, SD, plasma, iv, intravenously injected, 2.0 mg/kg
[14] = male, SD, plasma, po, intragastrically administered, 5 mg/kg

XRPD result (room temperature) [1, 4]: form I + II | XRPD result (50° C.) [1, 4]: form I + II | XRPD result (room temperature) [1, 5]: form I | XRPD result (50° C.) [1, 5]: form I | XRPD result (room temperature) [1, 6]: form I + II | XRPD result (50° C.) [1, 6]: form I + II | XRPD result (room temperature) [1, 7]: form I | XRPD result (50° C.) [1, 7]: form I | XRPD result (room temperature) [1, 8]: form I + II | XRPD result (50° C.) [1, 8]: form I + II | XRPD result (room temperature) [1, 9]: form I | XRPD result (50° C.) [1, 9]: form I | XRPD result (room temperature) ([1]; Water, 0.5 mL, 7 days): form I + II | XRPD result (50° C.) ([1]; Water, 0.5 mL, 7 days): form I + II | XRPD result (room temperature) [1, 10]: form I + II | XRPD result (50° C.) [1, 10]: form I | XRPD result (room temperature) [1, 11]: form I + II | XRPD result (50° C.) [1, 11]: form I | XRPD result (room temperature) [1, 12]: form I + II | XRPD result (50° C.) [1, 12]: form I
Structure (SMILES): N#Cc1cnc(NC(=O)N2CCCc3cc(CN4CCN5CCC[C@H]5C4=O)c(C=O)nc32)cc1NC1CC1

AUC(0-t) [2, 13]: 2550 ng·h/mL | clearance [2, 13]: 13.4 mL/min/kg | half-life [2, 13]: 1.23 h | bioavailability ([2]; male, SD, plasma, oral, intragastric 5 mg/kg vs intravenous 2.0 mg/kg, read-out: absolute bioavailability): 35.3% | AUC(0-t) [2, 14]: 2250 ng·h/mL | Cmax [2, 14]: 597 ng/mL | half-life [2, 14]: 1.24 h | Tmax ([2]; male, SD, plasma, po, intragastrically administered, 5 mg/kg, read-out: time at which the plasma concentration reached the peak value (Tmax)): 2.5 h | volume distribution ([2]; intravenously injected, 2.0 mg/kg): 0.973 L/kg
Structure (SMILES): N#Cc1cnc(NC(=O)N2CCCc3cc(CN4CCN5CCC[C@@H]5C4=O)c(C=O)nc32)cc1NC1CC1 [compound of formula C]

FaSSIF Solubility (Solubility test; FaSSIF (pH about 6.50), 37° C., 24 h): 19 µg/mL | FeSSIF Solubility (Solubility test; 37° C., 24 h): 5.5 µg/mL | SGF Solubility (Solubility test; SGF (pH about 1.20), 37° C., 24 h): >5000 µg/mL | Water Solubility (Solubility test; 37° C., 24 h): 1.5 µg/mL | XRPD result at 40° C./75% RH (open) (Solid stability study): Unchanged | XRPD result at 60° C. (closed) (Solid stability study): Unchanged
Structure (SMILES): N#Cc1cnc(NC(=O)N2CCCc3cc(CN4CCN5CCC[C@H]5C4=O)c(C=O)nc32)cc1NC1CC1 [Crystalline form II]

solubility at 24 h (Solubility test; FaSSIF (fasted state simulated intestinal fluid), pH 6.5, fassif, FaSSIF (pH about 6.50), read-out: FaSSIF Solubility): 26 µg/mL (≈ 50.5 µM) | FeSSIF Solubility (Solubility test; 37° C., 24 h): 14 µg/mL | solubility at 24 h (Solubility test; SGF (simulated gastric fluid), pH 1.2, simulated gastric fluid, SGF (pH about 1.20), read-out: SGF Solubility): > 5000 µg/mL | Water Solubility (Solubility test; 37° C., 24 h): 3.1 µg/mL | XRPD result at 40° C./75% RH (open) (Solid stability study): Unchanged | XRPD result at 60° C. (closed) (Solid stability study): Unchanged | hygroscopic weight gain ([3]; DVS, 0-90% RH, 25° C.): about 0.24% | hygroscopicity ([3]; DVS, 0-90% RH, 25° C.): almost non-hygroscopic | crystalline form of the sample after the DVS test ([3]; XRPD after DVS): not changed | Grinding stability result (crystalline form, XRPD) (Grinding stability study; Solid grinding, 2 min): unchanged | Grinding stability result (crystalline form, XRPD) (Grinding stability study; Solid grinding, 5 min): unchanged, but the crystallinity | Grinding stability result (crystallinity, XRPD) (Grinding stability study; Solid grinding, 5 min): became worse | Grinding stability result (crystalline form, XRPD) (Grinding stability study; Solvent grinding, Acetone): unchanged | Grinding stability result (crystalline form, XRPD) (Grinding stability study; Solvent grinding, Acetonitrile): unchanged | Grinding stability result (crystalline form, XRPD) (Grinding stability study; Solvent grinding, Dichloromethane): unchanged | Grinding stability result (crystalline form, XRPD) (Grinding stability study; Solvent grinding, Ethanol): unchanged | Grinding stability result (crystalline form, XRPD) (Grinding stability study; Solvent grinding, Methanol): unchanged
Structure (SMILES): N#Cc1cnc(NC(=O)N2CCCc3cc(CN4CCN5CCC[C@H]5C4=O)c(C=O)nc32)cc1NC1CC1 [Crystalline form I]
